The values below are quoted from earlier work in patent publication US10947168B2, “Solvent systems for dicyandiamide and/or alkyl thiophosphoric triamide and use in agricultural applications” (RHODIA OPERATIONS, priority 2014, dated 2021).

Regarding `N#CNC(=N)N` [Dicyandiamide], the solubility in water result is recorded as “about 41 g/l”.
